Assay results taken from patent US10202354B2, “Therapeutic compounds and uses thereof” (GENENTECH, INC., priority 2015, dated 2019).

Each molecule was assayed against Full length KDM2B (Homo sapiens (Human), UniProt Q8NHM5) (assay: KDM2B TR-FRET Assay for Determining Inhibitor IC50). Conditions: TR-FRET (HTRF), biotin-H3K36me2 peptide substrate.
Assay type: biochemical
Source text: KDM2B TR-FRET Assay for Determining Inhibitor IC50
The KDM2B TR-FRET Assay described above represents an additional embodiment of the invention.

Full length KDM2B, sequence (Q8NHM5 whole entry): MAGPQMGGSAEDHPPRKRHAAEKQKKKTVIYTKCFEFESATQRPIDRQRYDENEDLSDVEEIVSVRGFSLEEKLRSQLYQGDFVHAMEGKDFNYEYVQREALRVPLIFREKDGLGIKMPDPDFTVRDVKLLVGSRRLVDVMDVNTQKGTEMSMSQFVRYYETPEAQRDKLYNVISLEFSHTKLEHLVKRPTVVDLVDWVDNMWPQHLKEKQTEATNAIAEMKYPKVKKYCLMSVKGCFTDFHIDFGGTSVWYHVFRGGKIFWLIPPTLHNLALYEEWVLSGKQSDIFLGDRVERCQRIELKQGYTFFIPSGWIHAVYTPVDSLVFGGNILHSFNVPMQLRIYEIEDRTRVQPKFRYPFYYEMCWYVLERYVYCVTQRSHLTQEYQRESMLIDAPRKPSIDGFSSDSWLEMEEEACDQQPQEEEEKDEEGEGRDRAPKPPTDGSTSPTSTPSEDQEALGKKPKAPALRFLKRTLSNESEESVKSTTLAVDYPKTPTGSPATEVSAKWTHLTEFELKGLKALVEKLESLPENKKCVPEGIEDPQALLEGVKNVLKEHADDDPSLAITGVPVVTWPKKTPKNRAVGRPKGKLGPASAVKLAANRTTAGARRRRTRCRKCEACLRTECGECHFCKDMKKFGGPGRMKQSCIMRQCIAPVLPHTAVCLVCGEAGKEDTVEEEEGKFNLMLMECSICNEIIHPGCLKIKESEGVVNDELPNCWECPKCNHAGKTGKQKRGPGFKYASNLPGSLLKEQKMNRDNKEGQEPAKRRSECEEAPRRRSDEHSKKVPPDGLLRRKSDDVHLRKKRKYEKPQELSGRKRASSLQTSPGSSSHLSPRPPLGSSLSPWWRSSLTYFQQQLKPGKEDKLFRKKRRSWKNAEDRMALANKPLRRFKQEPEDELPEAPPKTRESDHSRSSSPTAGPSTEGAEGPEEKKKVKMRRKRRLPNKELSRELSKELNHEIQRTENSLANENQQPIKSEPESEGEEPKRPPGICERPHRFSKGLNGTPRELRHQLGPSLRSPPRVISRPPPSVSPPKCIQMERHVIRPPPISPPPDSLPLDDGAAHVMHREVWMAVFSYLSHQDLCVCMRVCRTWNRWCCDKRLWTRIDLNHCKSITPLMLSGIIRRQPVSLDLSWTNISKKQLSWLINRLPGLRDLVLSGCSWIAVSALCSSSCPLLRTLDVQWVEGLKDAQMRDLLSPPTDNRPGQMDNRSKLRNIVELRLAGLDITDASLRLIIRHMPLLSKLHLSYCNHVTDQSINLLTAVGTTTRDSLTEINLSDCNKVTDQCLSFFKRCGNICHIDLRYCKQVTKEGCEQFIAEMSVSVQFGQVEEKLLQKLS

With `CCN1CCN(C2=NCCN2S(=O)(=O)c2cccc(OC(F)F)c2)CC1` [Example 104, 1-[1-[3-(difluoromethoxy)phenyl]sulfonyl-4,5-dihydroimidazol-2-yl]-4-ethyl-piperazine] as the molecule, how does the IC50 read?
Its IC50 is 7.76 nM.

For `O=C(c1ccc(Cl)cc1)N1CCN=C1N1CCN(C2CCC2)CC1` [Example 88, (4-chlorophenyl)-[2-(4-cyclobutylpiperazin-1-yl)-4,5-dihydroimidazol-1-yl]methanone], which IC50 is on record?
The IC50 was 2.21 nM.

`O=S(=O)(c1ccc(-c2ccccc2C(F)(F)F)cc1)N1CCN=C1N1CCN(C2CCC2)CC1` [Example 4, 1-cyclobutyl-4-[1-[4-[2-(trifluoromethyl)phenyl]phenyl]sulfonyl-4,5-dihydroimidazol-2-yl]piperazine] was tested. Which IC50 did it give?
The IC50 was 0.102 nM.

With `N#Cc1ccc2cc(S(=O)(=O)N3CCN=C3N3CCN(C4CCC4)CC3)ccc2c1` [Example 36, 6-[[2-(4-cyclobutylpiperazin-1-yl)-4,5-dihydroimidazol-1-yl]sulfonyl]naphthalene-2-carbonitrile] as the molecule, how does the IC50 read?
Its IC50 is 0.13 nM.

For `COc1ccccc1-c1ccc(S(=O)(=O)N2CCN=C2N2CCN(C3CCC3)CC2)cc1` [Example 24, 1-cyclobutyl-4-[1-[4-(2-methoxyphenyl)phenyl]sulfonyl-4,5-dihydroimidazol-2-yl]piperazine], which IC50 is on record?
Its IC50 is 0.05 nM.

How did the IC50 turn out when `O=S(=O)(c1ccc(-c2ccccc2O)cc1)N1CCN=C1N1CCN(C2CCC2)CC1` [Example 15, 2-[4-[[2-(4-cyclobutylpiperazin-1-yl)-4,5-dihydroimidazol-1-yl]sulfonyl]phenyl]phenol] was run?
The IC50 was 0.037 nM.

For `CCN1CCN(C2=NCCN2S(=O)(=O)c2ccc(C(F)(F)F)cc2)CC1` [Example 107, 1-ethyl-4-[1-[4-(trifluoromethyl)phenyl]sulfonyl-4,5-dihydroimidazol-2-yl]piperazine], which IC50 is on record?
Its IC50 is 3.92 nM.

`O=S(=O)(c1ccc2cc(Cl)ccc2c1)N1CCN=C1N1CCN(C2CCC2)CC1` [Example 74, 1-[1-[(6-chloro-2-naphthyl)sulfonyl]-4,5-dihydroimidazol-2-yl]-4-cyclobutyl-piperazine] was tested. Which IC50 did it give?
The IC50 was 0.041 nM.

How did the IC50 turn out when `Cn1nccc1-c1ccc(S(=O)(=O)N2CCN=C2N2CCN(C3CCC3)CC2)cc1` [Example 29, 1-cyclobutyl-4-[1-[4-(2-methylpyrazol-3-yl)phenyl]sulfonyl-4,5-dihydroimidazol-2-yl]piperazine] was run?
Its IC50 is 0.049 nM.

How did the IC50 turn out when `CCN1CCN(C2=NCCN2S(=O)(=O)c2ccc(OC)cc2)CC1` [Example 116, 1-ethyl-4-[1-(4-methoxyphenyl)sulfonyl-4,5-dihydroimidazol-2-yl]piperazine] was run?
Its IC50 is 5.45 nM.

`CC(C)c1ccc(S(=O)(=O)N2C[C@H](C3CC3)N=C2N2CCN(C3CCC3)CC2)cc1` [Example 42, (S)-1-cyclobutyl-4-(4-cyclopropyl-1-((4-isopropylphenyl)sulfonyl)-4,5-dihydro-1H-imidazol-2-yl)piperazine] was tested. Which IC50 did it give?
The IC50 was 0.047 nM.
